What was measured:
MDR1 in LS174T cells = test: MDR1 protein levels (western blot); type: cell-based, human; conditions: 10 μM SPA70, 1.6 μM RIF, 72 h
Experimental: (§1) Cells were rinsed once with cold PBS then lysed in RIPA lysis buffer (Thermo Fisher Scientific) containing protease inhibitor (Roche). Mouse liver samples were homogenized in 500 μl of cold RIPA lysis buffer in a Bullet Blender Blue homogenizer (Next Advance, Averill Park, NY). Then, 25 μg of total protein lysates were loaded onto NuPAGE 4%–12% Bis-Tris gels (Invitrogen) with NuPAGE MES SDS running buffer (Invitrogen). The proteins were transferred from the gel to a nitrocellulose membrane by using the iBlot gel-transfer system (Invitrogen). The membrane was then blocked for 1 h with Odyssey Blocking Buffer (LI-COR Biosciences, Lincoln, NE) and probed with mouse monoclonal antibodies against CYP3A4 (K03; stock concentration: 2.5 mg ml^−1, diluted 1:5000)[51], MDR1 (D-11; Cat. No. sc-55510, Santa Cruz Biotechnology, Santa Cruz, CA; stock concentration: 0.2 mg ml^−1, diluted 1:1500), hPXR (H-11; Cat. No. sc-48340, Santa Cruz Biotechnology; stock concentration: 0.2 mg ml^−1, diluted 1:400), mouse Cyp3a (Cat. No. MAB10041, Millipore, Temecula, CA; Lot No. 1957980, diluted 1:1000), or β-actin (Cat. No. A5441, Sigma; Lot No. 043M4840V, diluted 1:5000). […] The relative intensity of each protein band was then determined by normalizing the intensity of each protein band to that of actin. […]

MDR1 in LS180 cells = test: MDR1 protein levels (western blot); type: cell-based, human; conditions: 10 μM SPA70, 1.6 μM RIF, 72 h
Experimental: as §1

hPXR [1] = test: Liver Cyp3a11 mRNA and protein in hPXR transgenic mice; type: in vivo, mouse; conditions: hPXR humanized transgenic mice, SPA70 200 mg kg−1, RIF 10 mg kg−1, 72 h
Experimental: Cells were rinsed once with cold PBS then lysed in RIPA lysis buffer (Thermo Fisher Scientific) containing protease inhibitor (Roche). Mouse liver samples were homogenized in 500 μl of cold RIPA lysis buffer in a Bullet Blender Blue homogenizer (Next Advance, Averill Park, NY). Then, 25 μg of total protein lysates were loaded onto NuPAGE 4%–12% Bis-Tris gels (Invitrogen) with NuPAGE MES SDS running buffer (Invitrogen). The proteins were transferred from the gel to a nitrocellulose membrane by using the iBlot gel-transfer system (Invitrogen). […] The relative intensity of each protein band was then determined by normalizing the intensity of each protein band to that of actin. […]
The method used for RNA extraction and polymerase chain reaction with reverse transcription (RT-PCR) has been described previously. […] Quantitative RT-PCR was performed in accordance with the manufacturer’s protocol by using TaqMan gene expression assays (Thermo Fisher Scientific) specific for the hPXR and Cyp3a11 genes, with GAPDH or 18s rRNA as the reference gene, in an ABI 7900HT Fast Real-Time PCR System (Thermo Fisher Scientific). […] The comparative threshold (Ct) method was used for the relative quantification of gene expression by the following formulae: ΔCt = Ct (test gene) − Ct (GAPDH); ΔΔCt (test gene) = ΔCt (test gene in treatment group) − ΔCt (test gene in vehicle control group). […]

hPXR with SRC-1 = molecular target: T1, hPXR with SRC-1 (Homo sapiens, UniProt O75469); test: Mammalian two-hybrid assay; type: cell-based; conditions: LS180 cells; SPA70 10 µM, SJB7 4 µM
T1 construct: expressed in transfected cells; host or cells: LS180
From the text: (§2) The mammalian two-hybrid assay method has been described previously. Briefly, the CheckMate mammalian two-hybrid system (Promega) was used to evaluate the association between hPXR and its co-regulators. LS180 cells were co-transfected with an hPXR plasmid (pACT-hPXR, pACT-hPXRM429A or pACT-hPXRF429A), a coregulator plasmid (pBIND-SRC-1, pBIND-TIF2, pBIND-SMRTτ [amino acids 2077–2471], or pBIND-mNCoR [amino acids 1958–2401]), and a GAL4 firefly luciferase reporter plasmid (pG5-luc). The Renilla luciferase is constitutively expressed from the pBIND vector, and served as an internal transfection control. The activity of the firefly and Renilla luciferase was measured by using the Dual-Glo Luciferase Assay (Promega), and the relative luciferase activity of pG5-luc was determined by normalizing the activity of firefly luciferase to that of Renilla luciferase.

hPXR with TIF2 = molecular target: T2, hPXR with TIF2 (Homo sapiens, UniProt O75469); test: Mammalian two-hybrid assay; type: cell-based; conditions: LS180 cells; SPA70 10 µM, SJB7 4 µM
T2 construct: expressed in transfected cells; host or cells: LS180
From the text: as §2

hPXR [2] = molecular target: T3, hPXR (Homo sapiens, UniProt O75469); test: hPXR transactivation assay, HepG2 stable cell line, antagonistic mode; conditions: SPA70 concentration of 10 μM; all rifampicin concentrations tested
T3 sequence (O75469 1-434): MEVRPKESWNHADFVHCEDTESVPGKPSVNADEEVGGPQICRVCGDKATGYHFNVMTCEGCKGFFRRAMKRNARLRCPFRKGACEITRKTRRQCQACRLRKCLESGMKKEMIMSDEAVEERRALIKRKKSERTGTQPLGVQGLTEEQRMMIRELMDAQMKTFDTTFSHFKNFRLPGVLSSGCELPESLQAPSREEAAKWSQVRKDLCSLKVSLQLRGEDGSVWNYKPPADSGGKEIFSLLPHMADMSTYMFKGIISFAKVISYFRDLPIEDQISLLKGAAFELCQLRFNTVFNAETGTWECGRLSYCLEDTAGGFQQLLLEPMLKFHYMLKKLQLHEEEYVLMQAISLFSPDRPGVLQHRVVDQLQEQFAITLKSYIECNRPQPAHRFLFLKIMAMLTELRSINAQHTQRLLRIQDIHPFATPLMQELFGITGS

T1 sequence (Q15788 whole entry partner, one chain of several): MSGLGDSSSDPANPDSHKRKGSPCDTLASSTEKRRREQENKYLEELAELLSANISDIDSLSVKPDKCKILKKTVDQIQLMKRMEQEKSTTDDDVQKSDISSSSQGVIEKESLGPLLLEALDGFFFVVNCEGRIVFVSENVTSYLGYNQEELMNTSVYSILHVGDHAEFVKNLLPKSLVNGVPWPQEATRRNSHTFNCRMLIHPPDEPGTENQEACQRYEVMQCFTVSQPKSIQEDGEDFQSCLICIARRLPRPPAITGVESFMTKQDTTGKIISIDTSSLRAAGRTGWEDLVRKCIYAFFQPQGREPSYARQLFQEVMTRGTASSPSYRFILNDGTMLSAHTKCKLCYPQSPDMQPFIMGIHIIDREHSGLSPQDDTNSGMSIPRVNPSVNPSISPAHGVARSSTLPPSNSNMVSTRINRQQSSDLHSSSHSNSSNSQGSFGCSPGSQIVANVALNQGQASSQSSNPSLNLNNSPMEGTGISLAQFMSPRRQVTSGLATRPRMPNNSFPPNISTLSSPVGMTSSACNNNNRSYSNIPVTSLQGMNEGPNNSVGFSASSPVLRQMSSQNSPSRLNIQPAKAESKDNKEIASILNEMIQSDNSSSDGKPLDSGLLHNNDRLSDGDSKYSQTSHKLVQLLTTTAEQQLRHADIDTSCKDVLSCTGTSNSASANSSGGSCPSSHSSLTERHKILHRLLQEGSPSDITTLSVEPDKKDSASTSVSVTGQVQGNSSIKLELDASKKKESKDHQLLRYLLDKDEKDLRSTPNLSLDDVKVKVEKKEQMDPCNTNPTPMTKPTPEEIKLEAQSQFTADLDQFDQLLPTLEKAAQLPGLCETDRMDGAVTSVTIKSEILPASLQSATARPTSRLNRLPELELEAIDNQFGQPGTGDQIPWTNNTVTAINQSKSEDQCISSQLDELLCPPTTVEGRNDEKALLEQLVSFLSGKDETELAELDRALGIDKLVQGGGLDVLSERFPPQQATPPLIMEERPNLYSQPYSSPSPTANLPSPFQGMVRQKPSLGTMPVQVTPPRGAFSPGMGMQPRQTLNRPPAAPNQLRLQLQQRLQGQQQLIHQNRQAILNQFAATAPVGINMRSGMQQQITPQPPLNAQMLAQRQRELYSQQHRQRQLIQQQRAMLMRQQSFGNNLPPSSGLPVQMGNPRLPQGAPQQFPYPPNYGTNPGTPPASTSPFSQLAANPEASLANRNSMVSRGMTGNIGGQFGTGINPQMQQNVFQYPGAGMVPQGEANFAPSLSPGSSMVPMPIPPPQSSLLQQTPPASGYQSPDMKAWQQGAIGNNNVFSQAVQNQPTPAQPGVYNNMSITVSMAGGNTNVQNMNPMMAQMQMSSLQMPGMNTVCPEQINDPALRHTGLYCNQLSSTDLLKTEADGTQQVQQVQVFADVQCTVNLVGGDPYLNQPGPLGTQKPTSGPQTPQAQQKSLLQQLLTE
T2 sequence (Q15596 whole entry partner, one chain of several): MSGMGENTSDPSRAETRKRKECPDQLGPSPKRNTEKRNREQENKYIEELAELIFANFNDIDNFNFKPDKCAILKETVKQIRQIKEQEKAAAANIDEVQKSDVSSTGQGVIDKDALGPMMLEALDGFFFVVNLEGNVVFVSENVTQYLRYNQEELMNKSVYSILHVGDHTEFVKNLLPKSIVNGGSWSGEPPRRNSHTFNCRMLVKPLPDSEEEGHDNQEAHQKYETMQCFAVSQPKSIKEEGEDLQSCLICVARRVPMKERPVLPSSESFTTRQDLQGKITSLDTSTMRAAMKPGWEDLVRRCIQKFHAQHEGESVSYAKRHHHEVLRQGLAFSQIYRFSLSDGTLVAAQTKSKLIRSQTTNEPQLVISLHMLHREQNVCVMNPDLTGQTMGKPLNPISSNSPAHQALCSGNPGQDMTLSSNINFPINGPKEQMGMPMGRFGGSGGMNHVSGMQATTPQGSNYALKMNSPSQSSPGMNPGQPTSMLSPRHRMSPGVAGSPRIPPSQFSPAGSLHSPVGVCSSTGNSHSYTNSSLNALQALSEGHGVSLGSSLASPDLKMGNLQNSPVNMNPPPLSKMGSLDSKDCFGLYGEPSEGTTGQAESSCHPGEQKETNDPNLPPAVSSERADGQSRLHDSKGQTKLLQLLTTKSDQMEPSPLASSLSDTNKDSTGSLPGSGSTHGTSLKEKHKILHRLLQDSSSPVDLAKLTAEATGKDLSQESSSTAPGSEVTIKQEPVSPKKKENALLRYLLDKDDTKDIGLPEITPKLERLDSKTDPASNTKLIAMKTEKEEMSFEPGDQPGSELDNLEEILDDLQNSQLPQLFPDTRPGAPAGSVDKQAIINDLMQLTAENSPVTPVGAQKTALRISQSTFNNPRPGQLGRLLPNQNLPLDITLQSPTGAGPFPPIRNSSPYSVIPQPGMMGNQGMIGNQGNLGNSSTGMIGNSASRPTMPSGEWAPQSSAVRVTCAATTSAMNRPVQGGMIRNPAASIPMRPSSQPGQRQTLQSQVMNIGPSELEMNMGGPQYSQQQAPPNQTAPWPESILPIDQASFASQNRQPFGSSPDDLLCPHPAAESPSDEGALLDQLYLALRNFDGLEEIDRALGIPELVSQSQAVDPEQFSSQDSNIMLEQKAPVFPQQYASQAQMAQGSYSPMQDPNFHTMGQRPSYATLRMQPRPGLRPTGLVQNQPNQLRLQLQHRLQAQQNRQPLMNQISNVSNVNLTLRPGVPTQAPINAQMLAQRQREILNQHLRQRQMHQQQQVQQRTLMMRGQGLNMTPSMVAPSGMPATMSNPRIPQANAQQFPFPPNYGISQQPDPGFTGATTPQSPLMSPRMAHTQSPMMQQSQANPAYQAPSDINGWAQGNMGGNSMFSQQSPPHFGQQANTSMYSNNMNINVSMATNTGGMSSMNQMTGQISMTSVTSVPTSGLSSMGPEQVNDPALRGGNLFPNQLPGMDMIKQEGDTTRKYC

**Q.** How did the “Effect on rifampicin induction of MDR1” value (MDR1 in LS174T cells) turn out when COc1ccc(OC)c(-n2nnc(S(=O)(=O)c3ccc(C(C)(C)C)cc3)c2C)c1 [SPA70] was run?
**A.** able to block rifampicin induction of MDR1

**Q.** What about the “Effect on rifampicin induction of MDR1” value (MDR1 in LS180 cells) of the same molecule?
**A.** able to block rifampicin induction of MDR1

**Q.** And the “Effect on rifampicin-induced expression of Cyp3a11 (mRNA and protein)” value (hPXR [1])?
**A.** effectively blocked the rifampicin-induced expression of Cyp3a11

**Q.** What about the “Increase of association of hPXR with SRC-1” value (hPXR with SRC-1) of the same molecule?
**A.** did not affect

**Q.** And the “Increase of association of hPXR with TIF2” value (hPXR with TIF2)?
**A.** did not affect

**Q.** And the “Effect on rifampicin-induced hPXR activation” value (hPXR [2])?
**A.** completely blocked the activity of rifampicin
